Molecular target: T1, Recombinant human LTC4 synthase (Homo sapiens, UniProt Q16873)
T1 construct: made in house; host or cells: Pichia pastoris ('Piccia pastoralis' [sic])
T1 sequence (Q16873 1-150): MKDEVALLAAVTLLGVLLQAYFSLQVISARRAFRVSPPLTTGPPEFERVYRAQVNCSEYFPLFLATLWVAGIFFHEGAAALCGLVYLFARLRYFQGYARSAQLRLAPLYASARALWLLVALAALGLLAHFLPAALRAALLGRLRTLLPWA
Experiment: LTC4 synthase in vitro assay (LTA4 to LTC4, HTRF detection)
Type: biochemical
Conditions: for inhibition at 10 µM: 5 min, total concentration of title compound in the assay 10 μM
Experimental: In the assay, LTC4 synthase catalyses the reaction where the substrate LTA4 is converted to LTC4. Recombinant human LTC4 synthase is expressed in Piccia pastoralis and the purified enzyme is dissolved in 25 mM tris-buffer pH 7.8 supplemented with 0.1 mM glutathione (GSH) and stored at −80° C. The assay is performed in phosphate buffered saline (PBS) pH 7.4 and 5 mM GSH in 384-well plates.
The following is added chronologically to each well:
1.48 μL LTC4 synthase in PBS with 5 mM GSH. The total protein concentration in this solution is 0.5 μg/mL. 2. 1 μL inhibitor in DMSO (final concentration 10 μM). 3. Incubation of the plate at room temperature for 10 min. 4. 1 μL LTA4 (final concentration 2.5 μM). 5. Incubation of the plate at room temperature for 5 min. 6. 10 μL of the incubation mixture is analysed using homogenous time resolved fluorescent (HTRF) detection.

## CN(c1ccc(Cl)cc1)c1ccc(C(=O)c2ccc(C(=O)c3ccc(C(F)(F)F)cc3)c(C(=O)O)c2)nc1 [5:11]
  IC50: 216 nM

## O=C(c1ccc(-n2nncc2-c2ccccc2)c(C(=O)O)c1)c1ccc(N(CC2CC2)c2ccc(Cl)cc2)cn1 [17:3, 5-{5-[(4-Chlorophenyl)(cyclopropylmethyl)amino]picolinoyl}-2-(5-phenyl-1,2,3-triazol-1-yl)benzoic acid]
  IC50: 45 nM
  inhibition at 10 µM: 100%

## CN(c1ccc(C(=O)c2ccc(Oc3ccccc3)c(C(=O)O)c2)nc1)c1ccc(F)c(F)c1 [1:16, 5-{5-[(3,4-Difluorophenyl)(methyl)amino]picolinoyl}-2-phenoxybenzoic acid]
  IC50: 387 nM
  inhibition at 10 µM: 98%

## CN(c1ccc(Cl)cc1)c1ccc(C(=O)c2ccc(NC(=O)c3cc(Cl)ccc3O)c(C(=O)O)c2)nc1 [3:2, 2-(5-Chloro-2-hydroxybenzamido)-5-{5-[(4-chlorophenyl)(methyl)amino]-picolinoyl}benzoic acid]
  IC50: 25 nM
  inhibition at 10 µM: 100%

## CN(c1ccc(Cl)cc1)c1ccc(C(=O)c2ccc(Oc3ccccc3)c(C(=O)O)n2)cc1 [9:1, 6-{4-[(4-Chlorophenyl)(methyl)amino]benzoyl}-3-phenoxypicolinic acid]
  IC50: 742 nM
  inhibition at 10 µM: 94%

## O=C(c1ccc(-n2nncc2-c2ccc(F)cc2)c(C(=O)O)c1)c1ccc(N(CC2CC2)c2ccc(Cl)cc2)cn1 [17:5, 5-{5-[(4-Chlorophenyl)(cyclopropylmethyl)amino]picolinoyl}-2-(5-(4-fluorophenyl)-1,2,3-triazol-1-yl)benzoic acid]
  IC50: 56 nM

## C=CCN(c1ccc(C(F)(F)F)cc1)c1ccc(C(=O)c2ccc(Oc3ccccc3)c(C(=O)O)c2)nc1 [1:13, 5-{5-[(Allyl)(4-trifluoromethylphenyl)amino]picolinoyl}-2-phenoxybenzoic acid]
  IC50: 290 nM
  inhibition at 10 µM: 99%

## COc1ccc(Oc2ccc(C(=O)c3ccc(OCc4cccc(Cl)c4)cn3)cc2C(=O)O)cc1 [11:2, 5-[5-(3-Chlorobenzyloxy)picolinoyl]-2-(4-methoxyphenoxy)benzoic acid]
  IC50: 345 nM

## CN(c1ccc(Cl)cc1)c1ccc(C(=O)c2ccc(-n3ccnc3-c3ccccc3)c(C(=O)O)c2)nc1 [19:2, 5-{5-[(4-Chlorophenyl)(methyl)amino]picolinoyl}-2-(2-phenylimidazol-1-yl)benzoic acid]
  IC50: 486 nM

## CCOc1ccc(C(=O)c2ccc(C(=O)c3ccc(N(C)c4ccc(Cl)cc4)cn3)cc2C(=O)O)cc1OCC [5:14, 5-{5-[(4-Chlorophenyl)(methyl)amino]picolinoyl}-2-(3,4-diethoxybenzoyl)-benzoic acid]
  IC50: 77 nM

## CN(c1ccc(Cl)cc1)c1ccc(C(=O)c2ccc(Oc3ccc(F)c(F)c3)c(C(=O)O)c2)nc1 [1:2, 5-{5-[(4-Chlorophenyl)(methyl)amino]picolinoyl}-2-(3,4-difluorophenoxy)benzoic acid]
  IC50: 104 nM
  inhibition at 10 µM: 98%

## O=C(c1ccc(Oc2ccccc2F)c(C(=O)O)c1)c1ccc(N(CC2CC2)c2ccc(Cl)cc2F)cn1 [1:34, 5-{5-[(4-Chloro-2-fluorophenyl)(cyclopropylmethyl)amino]picolinoyl}-2-(2-fluorophenoxy)benzoic acid]
  IC50: 195 nM

## O=C(c1ccc(Oc2ccccc2Oc2ccc(F)cc2F)c(C(=O)O)c1)c1ccc(N(CC2CC2)c2ccc(Cl)cc2)cn1 [1:42, 5-{5-[(4-Chlorophenyl)(cyclopropylmethyl)amino]picolinoyl}-2-[2-(2,4-difluorophenoxy)phenoxy]benzoic acid]
  IC50: 52 nM

## O=C(c1ccc(Oc2ccccc2)c(C(=O)O)c1)c1ncc(N(CC2CC2)c2ccc(Cl)cc2)cn1 [10:4, 5-{5-[(4-Chlorophenyl)(cyclopropylmethyl)amino]pyrimidine-2-carbonyl}-2-phenoxybenzoic acid]
  IC50: 132 nM

## CN(c1ccc(Cl)cc1)c1ccc(C(=O)c2ccc(NC(=O)c3ccccc3OC(F)(F)F)c(C(=O)O)c2)nc1 [3:12, 5-{5-[(4-Chlorophenyl)(methyl)amino]picolinoyl}-2-(2-trifluoromethoxy-benzamido)benzoic acid]
  IC50: 104 nM

## CN(c1ccc(Cl)cc1)c1ccc(C(=O)c2ccc(OCc3ccc4c(c3)OCO4)c(C(=O)O)c2)nc1 [12:5, 5-{5-[(4-Chlorophenyl)(methyl)amino]picolinoyl}2-(3,4-methylenedioxy-benzyloxy)benzoic acid]
  IC50: 166 nM

## O=C(c1ccc(Oc2ccccc2)c(C(=O)O)c1)c1ccc(N(CC2CC2)c2ccc(F)c(F)c2)cn1 [1:19, 5-{5-[(Cyclopropylmethyl)(3,4-difluorophenyl)amino]picolinoyl}-2-phenoxybenzoic acid]
  IC50: 130 nM
  inhibition at 10 µM: 100%

## COc1ccc(C(=O)Nc2ccc(C(=O)c3ccc(N(C)c4ccc(Cl)cc4)cn3)cc2C(=O)O)c(OC)c1 [3:13, 5-{5-[(4-Chlorophenyl)(methyl)amino]picolinoyl}-2-(2,4-dimethoxy-benzamido)benzoic acid]
  IC50: 23 nM

## CN(c1ccc(Cl)cc1)c1ccc(C(=O)c2ccc(OCc3ccc(F)c(F)c3)c(C(=O)O)c2)nc1 [12:4, 5-{5-[(4-Chlorophenyl)(methyl)amino]picolinoyl}-2-(3,4-difluorobenzyloxy)-benzoic acid]
  IC50: 150 nM

## CN(c1ccc(Cl)cc1)c1ccc(C(=O)c2ccc(-n3nc(-c4ccccc4)cc3C(F)(F)F)c(C(=O)O)c2)nc1 [18:2, 5-{5-[(4-Chlorophenyl)(methyl)amino]picolinoyl}-2-(3-phenyl-5-trifluoro-methylpyrazol-1-yl)benzoic acid]
  IC50: 104 nM

## O=C(c1ccc(Oc2ccccc2)c(C(=O)O)c1)c1ccc(N(CC2CCC2)c2ccc(Cl)cc2)cn1 [1:5, 5-{5-[(4-Chlorophenyl)(cyclobutylmethyl)amino]picolinoyl}-2-phenoxybenzoic acid]
  IC50: 70 nM
  inhibition at 10 µM: 100%

## CN(c1ccc(Cl)cc1)c1ccc(C(=O)c2ccc(NC(=O)c3ccccc3C#N)c(C(=O)O)c2)nc1 [3:20, 5-{5-[(4-Chlorophenyl)(methyl)amino]picolinoyl}-2-(2-cyanobenzamido)benzoic acid]
  IC50: 3000 nM

## CN(c1ccc(Cl)cc1)c1ccc(C(=O)c2ccc(NC(=O)c3cccc(Br)c3)c(C(=O)O)c2)nc1 [3:38, 2-(3-Bromobenzamido)-5-{5-[(4-chlorophenyl)(methyl)amino]picolinoyl}benzoic acid]
  IC50: 68 nM

## O=C(Nc1ccc(C(=O)c2ccc(N(CC3CC3)c3ccc(Cl)cc3)cn2)cc1C(=O)O)c1ccc2c(c1)OC(F)(F)O2 [3:24, 5-{5-[(4-Chlorophenyl)(cyclopropylmethyl)amino]picolinoyl}-2-[3,4-(difluoromethylenedioxy)benzamido]benzoic acid]
  IC50: 16 nM

## CCN(c1ccc(C(C)(C)C)cc1)c1ccc(C(=O)c2ccc(Oc3ccccc3)c(C(=O)O)c2)nc1 [1:22, 5-{5-[(4-tert-Butylphenyl)(ethyl)amino]picolinoyl}-2-phenoxybenzoic acid]
  IC50: 1240 nM
  inhibition at 10 µM: 99%

## O=C(c1ccc(Oc2ccccc2)c(C(=O)O)c1)c1ncc(N(Cc2ccccc2)c2ccc(Cl)cc2)cn1 [10:5, 5-{5-[(Benzyl)(4-chlorophenyl)amino]pyrimidine-2-carbonyl}-2-phenoxybenzoic acid]
  IC50: 119 nM

## COc1cc(C(=O)Nc2ccc(C(=O)c3ccc(N(C)c4ccc(Cl)cc4)cn3)cc2C(=O)O)cc(OC)c1OC [3:16, 5-{5-[(4-Chlorophenyl)(methyl)amino]picolinoyl}-2-(3,4,5-trimethoxybenz-amido)benzoic acid]
  IC50: 157 nM

## O=C(c1ccc(Oc2ccccc2)c(C(=O)O)c1)c1ccc(N(CC2CC2)c2ccc(Cl)cc2)cn1 [1:4, 5-{5-[(4-Chlorophenyl)(cyclopropylmethyl)amino]picolinoyl}-2-phenoxybenzoic acid]
  IC50: 62 nM
  inhibition at 10 µM: 100%

## CCOCCN(c1ccc(Cl)cc1)c1ccc(C(=O)c2ccc(Oc3ccccc3)c(C(=O)O)c2)nc1 [1:7, 5-{5-[(4-Chlorophenyl)(2-ethoxyethyl)amino]picolinoyl}-2-phenoxybenzoic acid]
  IC50: 171 nM
  inhibition at 10 µM: 99%

## N#CCCCN(c1ccc(Cl)cc1)c1ccc(C(=O)c2ccc(Oc3ccccc3)c(C(=O)O)c2)nc1 [1:10, 5-{5-[(4-Chlorophenyl)(3-cyanopropyl)amino]picolinoyl}-2-phenoxybenzoic acid]
  IC50: 433 nM
  inhibition at 10 µM: 98%

## CN(c1ccc(Cl)cc1)c1ccc(C(=O)c2ccc(NCc3ccc(Cl)cc3Cl)c(C(=O)O)c2)nc1 [2:11, 5-{5-[(4-Chlorophenyl)(methyl)amino]picolinoyl}-2-(2,4-dichlorobenzylamino)benzoic acid]
  IC50: 88 nM

## COc1ccc(C(=O)c2ccc(C(=O)c3ccc(N(C)c4ccc(Cl)cc4)cn3)cc2C(=O)O)c(OC)c1 [5:10, 5-{5-[(4-Chlorophenyl)(methyl)amino]picolinoyl}-2-(2,4-dimethoxybenzoyl)-benzoic acid]
  IC50: 68 nM

## CC(C)(C)c1ccc(N(CC2CC2)c2ccc(C(=O)c3ccc(Oc4ccccc4)c(C(=O)O)c3)nc2)cc1 [1:20, 5-{5-[(4-tert-Butylphenyl)(cyclopropylmethyl)amino]picolinoyl}-2-phenoxybenzoic acid]
  IC50: 549 nM
  inhibition at 10 µM: 100%

— US20120004244A1, “Bis Aromatic Compounds for Use as LTC4 Synthase Inhibitors” (BIOLIPOX AB, priority 2009, published 2012)
